Experimental data taken from patent US20150165000A1, “COMPOSITION FOR THERMOSTABILIZATION OF HUMAN SERUM ALBUMIN AND METHOD OF PREPARING THERMALLY STABILIZED HUMAN SERUM ALBUMIN USING THE SAME” (Ewha University - Industry Collaboration Foundation, priority 2012, published 2015).

Assays:
[1] = biological target: T1, human serum albumin (Homo sapiens, UniProt P02768); assay: Thermal denaturation of human serum albumin solution: check of precipitation during heating; assay type: physicochemical
T1 construct: the single supply source of human serum albumin is currently the blood of humans; purchased Sigma-Aldrich A3782
T1 sequence (P02768 25-609): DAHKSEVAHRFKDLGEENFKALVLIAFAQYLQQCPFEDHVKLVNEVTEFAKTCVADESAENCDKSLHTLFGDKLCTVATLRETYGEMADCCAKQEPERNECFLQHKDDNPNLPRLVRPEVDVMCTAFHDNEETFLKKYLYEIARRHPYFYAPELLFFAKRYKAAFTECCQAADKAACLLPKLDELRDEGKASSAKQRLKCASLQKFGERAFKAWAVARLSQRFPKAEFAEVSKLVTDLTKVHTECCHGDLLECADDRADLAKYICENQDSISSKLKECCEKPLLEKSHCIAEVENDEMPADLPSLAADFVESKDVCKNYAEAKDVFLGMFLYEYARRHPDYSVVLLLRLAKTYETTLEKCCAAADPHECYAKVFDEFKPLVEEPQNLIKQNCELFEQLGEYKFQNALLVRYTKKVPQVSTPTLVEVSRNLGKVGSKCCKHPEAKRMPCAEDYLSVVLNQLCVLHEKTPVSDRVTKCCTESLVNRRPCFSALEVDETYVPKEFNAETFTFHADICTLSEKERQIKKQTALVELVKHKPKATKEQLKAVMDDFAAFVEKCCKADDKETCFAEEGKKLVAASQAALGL
Experimental: Thus, the present inventors estimated oleic acid affecting stability depending on the temperature. […] Specifically, while the temperature was maintained at 65° C., 70° C. and 75° C., whether the precipitation was formed due to denaturation of protein was checked at intervals of 30 min, 5 min and 3 min, respectively.
Thermostabilizing effects were evaluated at 70° C. using other C18 fatty acids including stearic acid, linoleic acid, α-linolenic acid and γ-linolenic acid, as well as oleic acid, in the same manner as in Example 6.1. for testing of stability against denaturation due to thermal treatment using oleic acid.
Thermostabilizing effects at 65° C. were evaluated using C16 fatty acids including palmitic acid and palmitoleic acid, as well as oleic acid as the C18 fatty acid, in the same manner as in Examples 6.1. and 6.2. for testing of stability against degeneration due to thermal treatment using various C18 fatty acids including oleic acid. The samples were warmed to 65° C. and observed at an interval of 5 min.
Thermostabilizing effects at 65° C. were evaluated using EPA (eicosapentaenoic acid) and DHA (docosahexanoic acid) as C20 and C22 fatty acids, as well as oleic acid as the C18 fatty acid, in the same manner as in Examples 6.1. to 6.3. for testing of stability against denaturation due to thermal treatment using various C16 and C18 fatty acids.

[2] = biological target: T1, human serum albumin; assay: Structural stability against thermal treatment: secondary structure composition from circular dichroism; assay type: physicochemical; conditions: for structural stability (ratio of α-helix / circular dichroism spectrum), in words / structural stability (ratio of α-helix by circular dichroism), in words: albumin 1 mg/mL
Experimental: The composition of the secondary structure of protein may be estimated using circular dichroism, and thus changes in structure of the thermally denatured protein may be measured.
Measurement of circular dichroism was performed three times under conditions of a data pitch of 0.2 nm, a band width of 1.0 nm, a response time of 4 sec, and a scanning speed of 50 nm/min using a quartz cuvette having a path length of 0.1 cm by use of Jasco J-715 spectropolarimeter. The composition of the secondary structure was assayed from the measured circular dichroism values using SELCON3 program contained in the Dicroprot program.

Compound: CC/C=C\C/C=C\C/C=C\C/C=C\C/C=C\C/C=C\CCC(=O)O [DHA, (4Z,7Z,10Z,13Z,16Z,19Z)-docosa-4,7,10,13,16,19-hexaenoic acid]
- stability against denaturation due to thermal treatment compared to the human serum albumin control ([1]; 65° C., albumin 50 mg/mL, Examples 6.3, 6.4): much higher

Compound: CCCCC/C=C\C/C=C\CCCCCCCC(=O)O [linoleic acid]
- structural stability (ratio of α-helix / circular dichroism spectrum), in words ([2]; heated at 70° C. for 10 hr): maintained

Compound: CCCCCCCC/C=C\CCCCCCCC(=O)O [oleic acid]
- time for which denaturation was not observed ([1]; 60° C., albumin 50 mg/mL, fatty acid 1:1): ≥ 10 h
- time for which denaturation did not occur ([1]; 65° C., albumin 50 mg/mL, fatty acid 1:1): about 6 hr
- time after which precipitation began to form ([1]; 65° C., albumin 50 mg/mL, Example 6.1): 330 min
- period of time maintained stably compared to the fatty acid-free human serum albumin solution ([1]; 70° C.): two times as long or more
- time after which precipitation began to form ([1]; 70° C., albumin 50 mg/mL, Example 6.1): 30 min
- difference between the control and the test group ([1]; 75° C., albumin 50 mg/mL, Example 6.1): no difference
- structural stability (ratio of α-helix by circular dichroism), in words ([2]; heated at 60° C. for 10 hr): maintained
- structural stability (ratio of α-helix / circular dichroism spectrum), in words ([2]; heated at 70° C. for 10 hr): maintained
- structural stability (circular dichroism spectrum), in words ([2]; heated at 70° C. for 10 hr, albumin 1 to 40 mg/mL, Example 8): stability thereof was maintained
- structural stability (ratio of α-helix by circular dichroism), in words ([2]; heated at 80° C. for 10 hr): deteriorated

Compound: CCCCCCC=CCCCCCCCC(=O)O [palmitoleic acid, hexadec-9-enoic acid]
- structural stability (ratio of α-helix / circular dichroism spectrum), in words ([2]; heated at 70° C. for 10 hr): maintained

Compound: CC/C=C\C/C=C\C/C=C\CCCCCCCC(=O)O [α-linolenic acid, all-cis-9,12,15-octadecatrienoic acid]
- structural stability (ratio of α-helix / circular dichroism spectrum), in words ([2]; heated at 70° C. for 10 hr): maintained

Compound: CCCCC/C=C\C/C=C\C/C=C\CCCCC(=O)O [γ-linolenic acid]
- structural stability (ratio of α-helix / circular dichroism spectrum), in words ([2]; heated at 70° C. for 10 hr): maintained
